In patent publication US20260130395A1, “Water Dispersible Botanical Compositions” (Aquila Black Limited, priority 2021, published 2026):

Assay: Stability of cannabinoid compounds and Vitamin E components in Beverage 2 (AB Red) by LCMSMS
Type: physicochemical

CCCCCc1cc(O)c2c(c1)OC(C)(C)[C@@H]1CCC(C)=C[C@@H]21 [D9 THC, delta-9-tetrahydrocannabinol, reference compound]
stability over the entire period (in words) (AB Red stored at 8° C., 570 days): high degree of stability
stability over the entire period (in words) (AB Red stored at 21-25° C., 570 days): high degree of stability
Stability of Plant-Derived Cannabinoid Compounds in AB Red (stored at 8° C., 0 days): 12.9 µg/mL
Stability of Plant-Derived Cannabinoid Compounds in AB Red (stored at 8° C., 1 days): 13.0 µg/mL
Stability of Plant-Derived Cannabinoid Compounds in AB Red (stored at 8° C., 2 days): 13.0 µg/mL
Stability of Plant-Derived Cannabinoid Compounds in AB Red (stored at 8° C., 3 days): 12.7 µg/mL
Stability of Plant-Derived Cannabinoid Compounds in AB Red (stored at 8° C., 5 days): 13.0 µg/mL
Stability of Plant-Derived Cannabinoid Compounds in AB Red (stored at 8° C., 8 days): 12.6 µg/mL
Stability of Plant-Derived Cannabinoid Compounds in AB Red (stored at 8° C., 9 days): 12.7 µg/mL
Stability of Plant-Derived Cannabinoid Compounds in AB Red (stored at 8° C., 10 days): 12.8 µg/mL
Stability of Plant-Derived Cannabinoid Compounds in AB Red (stored at 8° C., 11 days): 12.8 µg/mL
Stability of Plant-Derived Cannabinoid Compounds in AB Red (stored at 8° C., 12 days): 12.9 µg/mL
Stability of Plant-Derived Cannabinoid Compounds in AB Red (stored at 8° C., 15 days): 12.9 µg/mL
Stability of Plant-Derived Cannabinoid Compounds in AB Red (stored at 8° C., 16 days): 12.7 µg/mL
Stability of Plant-Derived Cannabinoid Compounds in AB Red (stored at 8° C., 17 days): 12.6 µg/mL
Stability of Plant-Derived Cannabinoid Compounds in AB Red (stored at 8° C., 18 days): 12.8 µg/mL
Stability of Plant-Derived Cannabinoid Compounds in AB Red (stored at 8° C., 19 days): 12.7 µg/mL
Stability of Plant-Derived Cannabinoid Compounds in AB Red (stored at 8° C., 22 days): 12.7 µg/mL
Stability of Plant-Derived Cannabinoid Compounds in AB Red (stored at 8° C., 23 days): 12.9 µg/mL
Stability of Plant-Derived Cannabinoid Compounds in AB Red (stored at 8° C., 24 days): 12.9 µg/mL
Stability of Plant-Derived Cannabinoid Compounds in AB Red (stored at 8° C., 25 days): 12.9 µg/mL
Stability of Plant-Derived Cannabinoid Compounds in AB Red (stored at 8° C., 26 days): 12.7 µg/mL
Stability of Plant-Derived Cannabinoid Compounds in AB Red (stored at 8° C., 29 days): 12.7 µg/mL
Stability of Plant-Derived Cannabinoid Compounds in AB Red (stored at 8° C., 30 days): 12.9 µg/mL
Stability of Plant-Derived Cannabinoid Compounds in AB Red (stored at 8° C., 60 days): 12.5 µg/mL
Stability of Plant-Derived Cannabinoid Compounds in AB Red (stored at 8° C., 90 days): 13.0 µg/mL
Stability of Plant-Derived Cannabinoid Compounds in AB Red (stored at 8° C., 120 days): 12.4 µg/mL
Stability of Plant-Derived Cannabinoid Compounds in AB Red (stored at 8° C., 150 days): 12.8 µg/mL
Stability of Plant-Derived Cannabinoid Compounds in AB Red (stored at 8° C., 180 days): 12.6 µg/mL
Stability of Plant-Derived Cannabinoid Compounds in AB Red (stored at 8° C., 210 days): 12.3 µg/mL
Stability of Plant-Derived Cannabinoid Compounds in AB Red (stored at 8° C., 240 days): 12.4 µg/mL
Stability of Plant-Derived Cannabinoid Compounds in AB Red (stored at 8° C., 270 days): 12.6 µg/mL
Stability of Plant-Derived Cannabinoid Compounds in AB Red (stored at 8° C., 300 days): 12.4 µg/mL
Stability of Plant-Derived Cannabinoid Compounds in AB Red (stored at 8° C., 330 days): 12.7 µg/mL
Stability of Plant-Derived Cannabinoid Compounds in AB Red (stored at 8° C., 360 days): 12.5 µg/mL
Stability of Plant-Derived Cannabinoid Compounds in AB Red (stored at 8° C., 390 days): 12.4 µg/mL
Stability of Plant-Derived Cannabinoid Compounds in AB Red (stored at 8° C., 420 days): 12.4 µg/mL
Stability of Plant-Derived Cannabinoid Compounds in AB Red (stored at 8° C., 450 days): 12.4 µg/mL
Stability of Plant-Derived Cannabinoid Compounds in AB Red (stored at 8° C., 480 days): 12.2 µg/mL
Stability of Plant-Derived Cannabinoid Compounds in AB Red (stored at 8° C., 510 days): 12.0 µg/mL
Stability of Plant-Derived Cannabinoid Compounds in AB Red (stored at 8° C., 540 days): 11.9 µg/mL
Stability of Plant-Derived Cannabinoid Compounds in AB Red (stored at 8° C., 570 days): 11.8 µg/mL
Stability of Plant-Derived Cannabinoid Compounds in AB Red (stored at 21-25° C., 0 days): 12.9 µg/mL
Stability of Plant-Derived Cannabinoid Compounds in AB Red (stored at 21-25° C., 1 days): 13.0 µg/mL
Stability of Plant-Derived Cannabinoid Compounds in AB Red (stored at 21-25° C., 2 days): 13.0 µg/mL
Stability of Plant-Derived Cannabinoid Compounds in AB Red (stored at 21-25° C., 3 days): 12.6 µg/mL
Stability of Plant-Derived Cannabinoid Compounds in AB Red (stored at 21-25° C., 5 days): 12.4 µg/mL
Stability of Plant-Derived Cannabinoid Compounds in AB Red (stored at 21-25° C., 8 days): 12.7 µg/mL
Stability of Plant-Derived Cannabinoid Compounds in AB Red (stored at 21-25° C., 9 days): 12.8 µg/mL
Stability of Plant-Derived Cannabinoid Compounds in AB Red (stored at 21-25° C., 10 days): 12.5 µg/mL
Stability of Plant-Derived Cannabinoid Compounds in AB Red (stored at 21-25° C., 11 days): 12.9 µg/mL
Stability of Plant-Derived Cannabinoid Compounds in AB Red (stored at 21-25° C., 12 days): 13.0 µg/mL
Stability of Plant-Derived Cannabinoid Compounds in AB Red (stored at 21-25° C., 15 days): 12.7 µg/mL
Stability of Plant-Derived Cannabinoid Compounds in AB Red (stored at 21-25° C., 16 days): 12.4 µg/mL
Stability of Plant-Derived Cannabinoid Compounds in AB Red (stored at 21-25° C., 17 days): 12.9 µg/mL
Stability of Plant-Derived Cannabinoid Compounds in AB Red (stored at 21-25° C., 18 days): 12.8 µg/mL
Stability of Plant-Derived Cannabinoid Compounds in AB Red (stored at 21-25° C., 19 days): 12.8 µg/mL
Stability of Plant-Derived Cannabinoid Compounds in AB Red (stored at 21-25° C., 22 days): 12.9 µg/mL
Stability of Plant-Derived Cannabinoid Compounds in AB Red (stored at 21-25° C., 23 days): 12.9 µg/mL
Stability of Plant-Derived Cannabinoid Compounds in AB Red (stored at 21-25° C., 24 days): 12.5 µg/mL
Stability of Plant-Derived Cannabinoid Compounds in AB Red (stored at 21-25° C., 25 days): 12.5 µg/mL
Stability of Plant-Derived Cannabinoid Compounds in AB Red (stored at 21-25° C., 26 days): 12.4 µg/mL
Stability of Plant-Derived Cannabinoid Compounds in AB Red (stored at 21-25° C., 29 days): 12.7 µg/mL
Stability of Plant-Derived Cannabinoid Compounds in AB Red (stored at 21-25° C., 30 days): 12.4 µg/mL
Stability of Plant-Derived Cannabinoid Compounds in AB Red (stored at 21-25° C., 60 days): 12.2 µg/mL
Stability of Plant-Derived Cannabinoid Compounds in AB Red (stored at 21-25° C., 90 days): 12.8 µg/mL
Stability of Plant-Derived Cannabinoid Compounds in AB Red (stored at 21-25° C., 120 days): 12.4 µg/mL
Stability of Plant-Derived Cannabinoid Compounds in AB Red (stored at 21-25° C., 150 days): 12.4 µg/mL
Stability of Plant-Derived Cannabinoid Compounds in AB Red (stored at 21-25° C., 180 days): 12.8 µg/mL
Stability of Plant-Derived Cannabinoid Compounds in AB Red (stored at 21-25° C., 210 days): 12.4 µg/mL
Stability of Plant-Derived Cannabinoid Compounds in AB Red (stored at 21-25° C., 240 days): 12.5 µg/mL
Stability of Plant-Derived Cannabinoid Compounds in AB Red (stored at 21-25° C., 270 days): 12.5 µg/mL
Stability of Plant-Derived Cannabinoid Compounds in AB Red (stored at 21-25° C., 300 days): 12.4 µg/mL
Stability of Plant-Derived Cannabinoid Compounds in AB Red (stored at 21-25° C., 330 days): 12.1 µg/mL
Stability of Plant-Derived Cannabinoid Compounds in AB Red (stored at 21-25° C., 360 days): 12.6 µg/mL
Stability of Plant-Derived Cannabinoid Compounds in AB Red (stored at 21-25° C., 390 days): 12.1 µg/mL
Stability of Plant-Derived Cannabinoid Compounds in AB Red (stored at 21-25° C., 420 days): 12.2 µg/mL
Stability of Plant-Derived Cannabinoid Compounds in AB Red (stored at 21-25° C., 450 days): 12.2 µg/mL
Stability of Plant-Derived Cannabinoid Compounds in AB Red (stored at 21-25° C., 480 days): 11.8 µg/mL
Stability of Plant-Derived Cannabinoid Compounds in AB Red (stored at 21-25° C., 510 days): 12.3 µg/mL
Stability of Plant-Derived Cannabinoid Compounds in AB Red (stored at 21-25° C., 540 days): 12.2 µg/mL
Stability of Plant-Derived Cannabinoid Compounds in AB Red (stored at 21-25° C., 570 days): 11.8 µg/mL
